Source: patent US20070027165A1, “Fungicidal mixtures for controlling rice pathogens” (BASF Aktiengesellschaft, priority 2003, published 2007)

Tested on: Cochliobolus miyabeanus
Experiment: activity against brown spot of rice caused by Cochliobolus miyabeanus, protective application
Format: in vivo
Conditions: individual active compound, rice seedlings, assessed 6 days after inoculation
Experimental: The active compounds, separately or jointly, were prepared as a stock solution with 0.25% by weight of active compound in acetone or DMSO. 1% by weight of the emulsifier Uniperol® EL (wetting agent having emulsifying and dispersing action based on ethoxylated alkylphenols) was added to this solution, and the solution was diluted with water to the desired concentration.
Use example—activity against brown spot of rice caused by Cochliobolus miyabeanus, protective application
Leaves of potted rice seedlings of the cultivar “Tai-Nong 67” were sprayed to runoff point with an aqueous suspension of the concentration of active compound stated below. The next day, the plants were inoculated with an aqueous spore suspension of Cochliobolus miyabeanus. The test plants were then placed in climatized chambers at 22-24° C. and 95-99 % relative atmospheric humidity for six days. The extent of the development of the infection on the leaves was then determined visually.
Evaluation was carried out by determining the percentage of infected plants. These percentages were converted into efficacies.
The efficacy (E) is calculated as follows using Abbot's formula: E=(1−α/β)·100 α corresponds to the fungicidal infection of the treated plants in % and β corresponds to the fungicidal infection of the untreated (control) plants in %
An efficacy of 0 means that the infection level of the treated plants corresponds to that of the untreated control plants; an efficacy of 100 means that the treated plants are not infected.
The expected efficacies of mixtures of active compounds are determined using Colby's formula (R. S. Colby, Weeds, 15, 20-22, 1967) and compared with the observed efficacies.
Colby's formula: E=x+y−x·y/100 • E expected efficacy, expressed in % of the untreated control, when using the mixture of the active compounds A and B at the concentrations a and b • x efficacy, expressed in % of the untreated control, when using the active compound A at the concentration a • y efficacy, expressed in % of the untreated control, when using the active compound B at the concentration b

| Compound | Efficacy in % of the untreated control (1 ppm in the spray liquor) [%] | Efficacy in % of the untreated control (4 ppm in the spray liquor) [%] |
| --- | --- | --- |
| CC1CCN(c2c(-c3c(F)cccc3Cl)c(Cl)nc3ncnn23)CC1 [comparative compound A] | 20 |  |
| CC1CCN(c2c(-c3c(F)cc(F)cc3F)c(Cl)nc3ncnn23)CC1 [I, 5-chloro-7-(4-methylpiperidin-1-yl)-6-(2,4,6-trifluorophenyl)-[1,2,4]triazolo[1,5-a]pyrimidine] | 8 |  |
| N#Cc1c[nH]cc1-c1cccc(Cl)c1Cl [II (fenpiclonil), 4-(2,3-dichlorophenyl)-1 H-pyrrole-3-carbonitrile] | 0 | 0 |
| C[C@H](Nc1c(-c2c(F)cc(F)cc2F)c(Cl)nc2ncnn12)C(F)(F)F [comparative compound B] | 20 |  |
